Assay: Assay of the vitamins contained in a randomly taken bottle of the syrupy product of Example 2 (yield = actual / theoretical amount x 100)
Type: physicochemical
Details: syrupy product of Example 2, after preparation and packaging under inert atmosphere; actual amount of vitamin in the bottle divided by theoretical amount x 100
Protocol: The process can be broken down into the following steps: • the two preparation tanks (PT1 and PT2) and the pipe connecting them are inerted with an overpressure of inert gas at 0.4 bar for 300 sec.; • the sugar syrup is introduced into the main preparation tank (PT1); • the sugar syrup is left to stir with bubbling of nitrogen with a pressure of 0.4 bar and a flow rate of 4 Nm^3/h for 4 hours; • the sugar syrup is heated at 50° C. by means of the double jackets surrounding tank PT1; • the pH of the sugar syrup is adjusted to 9.5 by introducing the sodium hydroxide and the ascorbic acid; • the secondary preparation tank (PT2) is preheated at 50° C. by means of the double jackets surrounding tank PT2; • the Montanox 80 and the following fat-soluble vitamins: vitamin A, vitamin D3, vitamin E, are introduced into the secondary preparation tank (PT2); • the mixture in tank PT2 is left to stir at 50° C. and with bubbling of nitrogen for 60 minutes; • the content of tank PT2 is transferred to tank PT1 via the pipe connecting them; • tank PT2 is rinsed several times with water, at 50° C., purified and deoxygenated beforehand, and the rinsing water is then transferred to tank PT1 via the pipe connecting PT2 to PT1; • the content of tank PT1 is left to stir at 50° C. and with bubbling of nitrogen for 60 minutes; • the temperature of the content of tank PT1 is reduced to 35° C.; • the following water-soluble vitamins: vitamin B1, vitamin B2, vitamin B3, vitamin B5, vitamin B6, vitamin B8, vitamin B12 and vitamin C, and also the plum flavoring, are introduced into tank PT1; • the reservoirs which contained the vitamins are rinsed with purified water and the rinsing water is added to tank PT1; • the content of tank PT1 is left to stir at 35° C. and with bubbling of nitrogen for 120 minutes; • the dehydrated glucose is introduced into tank PT1 via the powder-transferring system; • purified and deoxygenated water is introduced into tank PT1; • the content of tank PT1 is left to stir at 35° C. and with bubbling of nitrogen for 60 minutes; • the piping between tank PT1 and the storage tank is inerted, and the storage tank is inerted with a nitrogen pressure at 0.4 bar and a flow rate of 1 Nm^3/h for 300 seconds; • the content of tank PT1 is transferred to the storage tank passing through the mixer into which nitrogen is injected, in contraflow to the passage of the liquid, with a pressure of 0.4 bar and a flow rate of 8 Nm^3/h; • the syrupy product which gradually accumulates in the storage tank is kept stirring at 150 rpm and with bubbling of nitrogen with a pressure of 0.4 bar and a flow rate of 2 Nm^3/h; • the pipes between the storage tank and the bottle-filling machine, and also the packaging hopper, are inerted with nitrogen at a pressure of 0.3 bar for 600 seconds; • the syrupy product is transferred to the packaging hopper and the content is kept at a nitrogen pressure of 0.2 bar; • the syrupy product is gradually transferred to the bottle-filling machine; • the bottles are inerted with nitrogen at 1 bar for 100 milliseconds, then they are filled with a volume of syrupy product metered by a positive-displacement pump and they are kept under a nitrogen atmosphere until they are closed by means of a crimped valve.
One of the bottles produced is taken randomly and the vitamins contained in this bottle are assayed. The yields are calculated by dividing the actual amount of vitamins that is contained in the bottle by the theoretical amount of vitamins that should be in the bottle, and by multiplying the result by 100.

YIELD (individual vitamin ratio) [%] | Compound
100 | CC(C)(CO)[C@@H](O)C(=O)NCCC(=O)O [Vitamin B5, pantothenic acid]
98.6 | Cc1ncc(CO)c(CO)c1O [Vitamin B6, pyridoxine]
98.6 | Cc1cc2nc3c(=O)[nH]c(=O)nc-3n(C[C@H](O)[C@H](O)[C@H](O)CO)c2cc1C [Vitamin B2, riboflavin]
98.8 | O=C(O)c1cccnc1 [Vitamin B3, nicotinic acid]

The remaining lines, values behind:

Compound | YIELD (individual vitamin ratio) [%]
Vitamin E | 100
CC1=C(/C=C/C(C)=C/C=C/C(C)=C/CO)C(C)(C)CCC1 [Vitamin A, retinol] | 100
